These results are taken from US8486996B2, “Aroylfuranes and aroylthiophenes” (Basilea Pharmaceutica AG, priority 2006, dated 2013).

Data set [1] is described as follows: Hoechst 33342 nuclear staining (48 h read-out). Format: cell-based. The gist of the method:
(§1)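 Adherent cells pre-spread 24 h before dosing, suspension cells dosed at seeding; compounds at 0.001 μM-10 μM final, 48 h at culture conditions. Hoechst 33342 (2-5 μg/ml) added for 30 min, then fluorescence microscopy scoring of apoptotic nuclear fraction and apoptosis-specific morphology, reported as scores A-D.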

The subject of data set [2] is tumor cells. As to the kind of experiment: Hoechst 33342 nuclear staining (48 h read-out). Type of data set: cell-based. The gist of the method: as §1
Data set [3] is described as follows: MTS proliferation assay (72 h read-out). Type of data set: cell-based. As to conditions: Homo sapiens, MRC5 cells. The gist of the method:
(§2)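 Tumour cells (1.5×10^3–10^4 per well) were seeded 24 h before compound addition, then exposed to 0.001–10 μM final compound for 72 h under culture conditions. MTS reagent was added for a further 3 h, absorbance was read at 492 nm, and results were binned into scores A–D.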

Data set [4] concerns tumor cells. Kind of data set: MTS proliferation assay (72 h read-out). Format: cell-based. A digest of the protocol:
as §2
In general terms: Tetrazolium assays rely on reduction of a dye to a coloured formazan, in cell work by metabolically active cells.

Data set [5] in a line: Mitochondrial membrane potential, JC-1 (read-out 48 h). Format: cell-based. The following applies: PBL, JC-1, 48 h. A digest of the protocol:
(§3)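 Tumor cells were treated with test compounds (adherent cells after 24 h of attachment, suspension cells immediately), medium holding up to 5% DMSO. After 48 h, JC-1 (2-5 μg/ml in added medium) was applied for 30 min. Fluorescence microscopy (FITC/TRITC filters) scored the fraction of cells with dissipated mitochondrial membrane potential as categories A-D.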

Data set [6] deals with tumor cells. The data set is described as above. Type of data set: cell-based. As to conditions: JC-1, 48 h. The gist of the method:
as §3

[7] abbreviates: Homo sapiens, MRC5 cells, read-out: Hoechst 33342 nuclear staining EC50, MRC5.
Where [8] appears, read: PBL, read-out: Hoechst 33342 nuclear staining EC50, PBL.
The mark [9] stands for this setting: Homo sapiens, HeLa cells, read-out: Hoechst 33342 nuclear staining EC50, HeLa.
[10] abbreviates: Homo sapiens, Jurkat cells, read-out: Hoechst 33342 nuclear staining EC50, Jurkat.
Where [11] appears, read: Jily cells, read-out: Hoechst 33342 nuclear staining EC50, Jily.
The mark [12] stands for this setting: Homo sapiens, HT-1080, HT1080 cells, read-out: MTS proliferation assay IC50, HT1080.
[13] abbreviates: Homo sapiens, HeLa cells, read-out: MTS proliferation assay IC50, HeLa.
The mark [14] stands for this setting: Homo sapiens, Jurkat cells, read-out: MTS proliferation assay IC50, Jurkat.
Setting [15] is: Jily cells, read-out: MTS proliferation assay IC50, Jily.
The mark [16] stands for this setting: Homo sapiens, HeLa cells, read-out: Mitochondrial membrane potential (read-out 48 h) HeLa.
The mark [17] stands for this setting: Homo sapiens, Jurkat cells, read-out: Mitochondrial membrane potential (read-out 48 h) Jurkat.
Setting [18] is: Homo sapiens, MCF7 cells, read-out: Mitochondrial membrane potential (read-out 48 h) MCF7.
The mark [19] stands for this setting: Jily cells, read-out: Mitochondrial membrane potential (read-out 48 h) Jily.

Read-outs that look alike come from different tables or passages of the source.

By melting point is commonly meant the temperature, or range, at which the solid turns liquid. In turn, `CCOc1ccc(NC(C)=O)cc1C(=O)c1oc2ccc(Cl)cc2c1N` [Example 21] showed a melting point of 110 to 112 °C. Further, in data set [1] (setting [7]), the EC50 is over 1000 nM. The EC50 in data set [1] (setting [8]) is over 1000 nM. Moreover, the EC50 in the data set on tumor cells [2] (setting [9]) was over 1000 nM. For the same molecule, the EC50 in the data set on tumor cells [2] (setting [10]) is over 1000 nM. Moreover, the EC50 in the data set on tumor cells [2] (setting [11]) was over 1000 nM. In data set [3], the IC50 is over 1000 nM. Further, in the data set on tumor cells [4] (setting [12]), the IC50 is over 1000 nM. Besides, the IC50 in the data set on tumor cells [4] (setting [13]) was over 1000 nM. Further, the IC50 with tumor cells [4] (setting [14]) was over 1000 nM. In the data set on tumor cells [4] (setting [15]), the IC50 is over 1000 nM. For the same molecule, the EC50 in data set [5] was over 1000 nM. The EC50 in the data set on tumor cells [6] (setting [16]) was over 1000 nM. Further, the EC50 in the data set on tumor cells [6] (setting [17]) was over 1000 nM. Moreover, the EC50 in the data set with tumor cells [6] (setting [18]) was over 1000 nM. Also, in the data set with tumor cells [6] (setting [19]), the EC50 was over 1000 nM.

In turn, `CCOc1cc(OC)c(Br)cc1C(=O)c1oc2ccc(Cl)cc2c1N` [Example 23] had a melting point of 132 to 133 °C. Further, in data set [1] (setting [7]), the EC50 was over 1000 nM. Moreover, the EC50 in data set [1] (setting [8]) was over 1000 nM. For the same molecule, the EC50 with tumor cells [2] (setting [9]) was over 1000 nM. For the same molecule, the EC50 in the data set with tumor cells [2] (setting [10]) is 100 to 1000 nM. For the same molecule, in the data set with tumor cells [2] (setting [11]), the EC50 is 100 to 1000 nM. The IC50 in data set [3] is over 1000 nM. Further, the IC50 in the data set on tumor cells [4] (setting [12]) was over 1000 nM. Moreover, the IC50 with tumor cells [4] (setting [13]) is over 1000 nM. Moreover, in the data set with tumor cells [4] (setting [14]), the IC50 was in the range of 100 to 1000 nM. The IC50 in the data set on tumor cells [4] (setting [15]) is 100 to 1000 nM. For the same molecule, in data set [5], the EC50 is over 1000 nM. Also, in the data set with tumor cells [6] (setting [16]), the EC50 is over 1000 nM. In addition, the EC50 in the data set with tumor cells [6] (setting [17]) lay within 100 to 1000 nM. For the same molecule, in the data set with tumor cells [6] (setting [18]), the EC50 was over 1000 nM. Moreover, the EC50 with tumor cells [6] (setting [19]) is over 1000 nM.

Regarding `CCOc1c(OC)cccc1C(=O)c1oc2ccc(Cl)cc2c1N` [Example 24], the melting point was in the range of 121 to 124 °C. In addition, the EC50 in data set [1] (setting [7]) was over 1000 nM. Besides, the EC50 in data set [1] (setting [8]) is over 1000 nM. Further, in the data set on tumor cells [2] (setting [9]), the EC50 is over 1000 nM. For the same molecule, in the data set with tumor cells [2] (setting [10]), the EC50 is over 1000 nM. The EC50 in the data set on tumor cells [2] (setting [11]) is over 1000 nM. Further, in data set [3], the IC50 is over 1000 nM. The IC50 in the data set with tumor cells [4] (setting [12]) is over 1000 nM. Moreover, the IC50 with tumor cells [4] (setting [13]) is over 1000 nM. In the data set with tumor cells [4] (setting [14]), the IC50 was over 1000 nM. Further, the IC50 in the data set on tumor cells [4] (setting [15]) is over 1000 nM. The EC50 in data set [5] is over 1000 nM. The EC50 in the data set on tumor cells [6] (setting [16]) was over 1000 nM. Further, the EC50 with tumor cells [6] (setting [17]) is over 1000 nM. The EC50 with tumor cells [6] (setting [18]) was over 1000 nM. The EC50 in the data set with tumor cells [6] (setting [19]) was over 1000 nM.

On to `CCOc1c(C)cccc1C(=O)c1oc2ccc(Cl)cc2c1N` [Example 25], for which the melting point was 54 °C. The EC50 in data set [1] (setting [7]) was over 1000 nM. In addition, the EC50 in data set [1] (setting [8]) is over 1000 nM. For the same molecule, the EC50 in the data set on tumor cells [2] (setting [9]) was over 1000 nM. The EC50 with tumor cells [2] (setting [10]) was in the range of 100 to 1000 nM. The EC50 in the data set with tumor cells [2] (setting [11]) lay within 100 to 1000 nM. Further, the IC50 in data set [3] is over 1000 nM. Also, the IC50 in the data set on tumor cells [4] (setting [12]) is over 1000 nM. In addition, in the data set with tumor cells [4] (setting [13]), the IC50 was over 1000 nM. The IC50 with tumor cells [4] (setting [14]) was 100 to 1000 nM. Besides, the IC50 with tumor cells [4] (setting [15]) fell in the range of 100 to 1000 nM. Also, in data set [5], the EC50 is over 1000 nM. Also, the EC50 in the data set with tumor cells [6] (setting [16]) is over 1000 nM. Besides, the EC50 in the data set with tumor cells [6] (setting [17]) lay within 100 to 1000 nM. Besides, the EC50 in the data set with tumor cells [6] (setting [18]) is over 1000 nM. In the data set with tumor cells [6] (setting [19]), the EC50 is 100 to 1000 nM.

On to `CCOc1ccc(Cl)cc1C(=O)c1oc2nc(C)ccc2c1N` [Example 27], for which the melting point fell in the range of 174 to 176 °C. Further, the EC50 in data set [1] (setting [7]) is over 1000 nM. Also, in data set [1] (setting [8]), the EC50 was over 1000 nM. In addition, the EC50 with tumor cells [2] (setting [9]) was 10 to 100 nM. Besides, in the data set with tumor cells [2] (setting [10]), the EC50 was under 10 nM. Also, the EC50 with tumor cells [2] (setting [11]) was in the range of 10 to 100 nM. Moreover, in data set [3], the IC50 fell in the range of 10 to 100 nM. Besides, the IC50 with tumor cells [4] (setting [12]) fell in the range of 10 to 100 nM. Further, in the data set with tumor cells [4] (setting [13]), the IC50 fell in the range of 10 to 100 nM. In addition, in the data set on tumor cells [4] (setting [14]), the IC50 was 10 to 100 nM. Also, the IC50 with tumor cells [4] (setting [15]) lay in the range of 10 to 100 nM. In addition, the EC50 in data set [5] is over 1000 nM. Also, in the data set with tumor cells [6] (setting [16]), the EC50 was 10 to 100 nM. In addition, the EC50 with tumor cells [6] (setting [17]) was 10 to 100 nM. Also, the EC50 in the data set on tumor cells [6] (setting [18]) is 100 to 1000 nM. Further, the EC50 in the data set on tumor cells [6] (setting [19]) was 10 to 100 nM.
